Assay results as given in patent US10059701B2 (Merck Patent GmbH, priority 2015, dated 2018).

Tests used:
IRAK4 = biological target: T1, IRAK4 (Homo sapiens, UniProt Q9NWZ3); assay: IRAK4 enzymatic assay (ADP-Glo luminescence); assay type: biochemical; settings: purified human recombinant His-TEV-IRAK4 (1-460), ATP 2 μM
T1 construct: His-TEV-IRAK4 (1-460); His (N); TEV cleavage site (N)
T1 sequence (Q9NWZ3 1-460): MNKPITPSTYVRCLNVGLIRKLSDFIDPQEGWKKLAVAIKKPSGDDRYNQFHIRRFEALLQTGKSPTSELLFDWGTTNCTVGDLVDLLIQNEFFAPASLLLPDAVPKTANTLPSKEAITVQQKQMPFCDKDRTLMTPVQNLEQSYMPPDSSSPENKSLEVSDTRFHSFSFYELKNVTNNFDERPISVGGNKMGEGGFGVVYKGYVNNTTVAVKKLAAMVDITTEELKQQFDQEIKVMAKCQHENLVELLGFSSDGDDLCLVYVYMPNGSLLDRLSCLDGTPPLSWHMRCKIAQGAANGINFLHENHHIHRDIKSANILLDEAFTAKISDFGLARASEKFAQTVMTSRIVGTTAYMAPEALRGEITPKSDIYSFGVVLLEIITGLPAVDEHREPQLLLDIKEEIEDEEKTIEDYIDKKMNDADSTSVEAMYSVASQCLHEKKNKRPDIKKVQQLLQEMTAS
Summary of the method: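 ADP-Glo luminescence read-out after a 2 h RT kinase reaction with 2 μM ATP and 300 nM biotinylated STK1 peptide. Enzyme (His-TEV-IRAK4 1-460, 0.3 μg/ml) first incubated 15 min with serially diluted compounds (10 μM–0.5 nM) in 50 mM Hepes pH 7.0, 10 mM MgCl2, 5 mM MnCl2.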

IRAK1 = biological target: T2, IRAK1 (Homo sapiens, UniProt P51617); assay: IRAK1 enzymatic assay (ADP-Glo luminescence); assay type: biochemical; settings: purified human recombinant His-TEV-IRAK1 (194-712)
T2 construct: His-TEV-IRAK1 (194-712); His (N); TEV cleavage site (N)
Summary of the method: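 Luminescent ADP-Glo read-out of ATP turnover by purified His-TEV-IRAK1 (194-712) at 0.3 μg/ml after a 2-hour RT reaction. Compounds, serially diluted from 10 μM to 0.5 nM, were preincubated with enzyme 15 minutes in Hepes pH 7.0 buffer with MgCl2, DTT, EGTA and Triton X-100.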

T2 sequence (P51617 194-712): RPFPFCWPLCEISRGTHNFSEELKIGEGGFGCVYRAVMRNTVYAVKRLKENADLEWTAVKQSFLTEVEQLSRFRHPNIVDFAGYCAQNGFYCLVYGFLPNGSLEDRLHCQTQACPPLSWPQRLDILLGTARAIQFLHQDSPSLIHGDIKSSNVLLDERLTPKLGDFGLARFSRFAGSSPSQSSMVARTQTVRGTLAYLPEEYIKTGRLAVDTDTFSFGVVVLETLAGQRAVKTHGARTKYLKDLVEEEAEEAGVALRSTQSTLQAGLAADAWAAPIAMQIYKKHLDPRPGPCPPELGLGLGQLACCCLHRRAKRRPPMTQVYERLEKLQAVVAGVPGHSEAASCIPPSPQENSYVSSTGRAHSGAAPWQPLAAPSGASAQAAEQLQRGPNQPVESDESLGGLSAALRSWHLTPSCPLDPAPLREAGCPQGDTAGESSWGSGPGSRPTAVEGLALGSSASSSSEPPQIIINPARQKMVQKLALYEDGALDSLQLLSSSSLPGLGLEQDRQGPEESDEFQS

Row | IC50 (IRAK4) | IC50 (IRAK1) | SMILES
1 | > 1000 nM | > 1000 nM | O=C(/N=c1\[nH]c2cc(N3CCOCC3=O)ccc2n1CCCO)c1ccc2nc[nH]c2c1 [Compound 102, (E)-N-(1-(3-hydroxypropyl)-5-(3-oxomorpholino)-1H-benzo[d]imidazol-2(3H)-ylidene)-1H-benzo[d]imidazole-6-carboxamide]
2 | ≤ 100 nM | ≤ 100 nM | COc1cc2c(cc1N1CCOCC1=O)[nH]/c(=N\C(=O)c1cccc(C(F)F)c1)n2CCCO [Compound 75, (E)-3-(difluoromethyl)-N-(1-(3-hydroxypropyl)-6-methoxy-5-(3-oxomorpholino)-1H-benzo[d]imidazol-2(3H)-ylidene)benzamide]
3 | ≤ 100 nM | > 1000 nM | O=C(/N=c1\[nH]c2cc(N3CCCOC3=O)ccc2n1C1CC1)c1cccc(C(F)(F)F)c1 [Compound 172, (E)-N-(1-cyclopropyl-5-(2-oxo-1,3-oxazinan-3-yl)-1H-benzo[d]imidazol-2(3H)-ylidene)-3-(trifluoromethyl)benzamide]
4 | ≤ 100 nM | > 1000 nM | O=C(/N=c1\[nH]c2cc(N3CCOCC3=O)c(Cl)cc2n1CCCO)c1cccc(C(F)(F)F)c1 [Compound 141, (E)-N-(6-chloro-1-(3-hydroxypropyl)-5-(3-oxomorpholino)-1H-benzo[d]imidazol-2(3H)-ylidene)-3-(trifluoromethyl)benzamide]
5 | ≤ 100 nM | ≤ 100 nM | Cc1cc2c(cc1N1CCOCC1=O)[nH]/c(=N\C(=O)c1cccc(C(F)F)c1)n2CCCO [Compound 69, (E)-3-(difluoromethyl)-N-(1-(3-hydroxypropyl)-6-methyl-5-(3-oxomorpholino)-1H-benzo[d]imidazol-2(3H)-ylidene)benzamide]
6 | ≤ 100 nM | 100 to 1000 nM | C#CCn1/c(=N/C(=O)c2cccc(C(F)(F)F)c2)[nH]c2cc(N3CCCOC3=O)ccc21 [Compound 175, (E)-N-(5-(2-oxo-1,3-oxazinan-3-yl)-1-(prop-2-yn-1-yl)-1H-benzo[d]imidazol-2(3H)-ylidene)-3-(trifluoromethyl)benzamide]
7 | ≤ 100 nM | 100 to 1000 nM | NC(=O)[C@H]1CC[C@@H](n2/c(=N/C(=O)c3cccc(C(F)(F)F)c3)[nH]c3cc(N4CCOCC4=O)ccc32)CC1 [Compound 150, (E)-N-(1-((1s,4s)-4-carbamoylcyclohexyl)-5-(3-oxomorpholino)-1H-benzo[d]imidazol-2(3H)-ylidene)-3-(trifluoromethyl)benzamide]
8 | ≤ 100 nM | ≤ 100 nM | COc1cc2c(cc1N1CCCOC1=O)[nH]/c(=N\C(=O)c1cccc(C(F)(F)F)c1)n2CCCO [Example 206, (E)-N-(1-(3-hydroxypropyl)-6-methoxy-5-(2-oxo-1,3-oxazinan-3-yl)-1H-benzo[d]imidazol-2(3H)-ylidene)-3-(trifluoromethyl)benzamide]
9 | ≤ 100 nM | ≤ 100 nM | CS(=O)(=O)c1cccc(C(=O)/N=c2\[nH]c3cc(N4CCOCC4=O)ccc3n2[C@H]2CC[C@@H](O)CC2)c1 [Compound 54, cis-(E)-N-(1-(4-hydroxycyclohexyl)-5-(3-oxomorpholino)-1H-benzo[d]imidazol-2(3H)-ylidene)-3-(methylsulfonyl)benzamide]
10 | ≤ 100 nM | 100 to 1000 nM | O=C(/N=c1\[nH]c2cc(N3CCOCC3=O)ccc2n1CCCO)c1cccc(Br)c1 [Compound 37, (E)-3-bromo-N-(1-(3-hydroxypropyl)-5-(3-oxomorpholino)-1H-benzo[d]imidazol-2(3H)-ylidene)benzamide]
11 | > 1000 nM | > 1000 nM | O=C(/C=C1\Nc2cc(N3CCOCC3=O)ccc2N1CCCO)c1ccc2ccccc2n1 [Compound 149, (E)-4-(1-(3-hydroxypropyl)-2-(2-oxo-2-(quinolin-2-yl)ethylidene)-2,3-dihydro-1H-benzo[d]imidazol-5-yl)morpholin-3-one]
12 | ≤ 100 nM | ≤ 100 nM | CS(=O)(=O)c1cccc(C(=O)/N=c2\[nH]c3cc(N4CCOCC4=O)ccc3n2CC2(CO)CC2)c1 [Compound 13, (E)-N-(1-((1-(hydroxymethyl)cyclopropyl)methyl)-5-(3-oxomorpholino)-1H-benzo[d]imidazol-2(3H)-ylidene)-3-(methylsulfonyl)benzamide]
13 | ≤ 100 nM | ≤ 100 nM | O=C(/N=c1\[nH]c2cc(N3CCOCC3=O)ccc2n1CCCO)c1cc(F)cc(C(F)(F)F)c1 [Compound 81, (E)-3-fluoro-N-(1-(3-hydroxypropyl)-5-(3-oxomorpholino)-1H-benzo[d]imidazol-2(3H)-ylidene)-5-(trifluoromethyl)benzamide]
14 | ≤ 100 nM | > 1000 nM | O=C(/N=c1\[nH]c2cc(N3CCOCC3=O)ccc2n1CCCO)c1ccc2scnc2c1 [Example 232, (E)-N-(1-(3-hydroxypropyl)-5-(3-oxomorpholino)-1H-benzo[d]imidazol-2(3H)-ylidene)benzo[d]thiazole-5-carboxamide]
15 | ≤ 100 nM | ≤ 100 nM | N#Cc1cccc(C(=O)/N=c2\[nH]c3cc(N4CCOCC4=O)ccc3n2CC2(CO)CC2)c1 [Compound 12, (E)-3-cyano-N-(1-((1-(hydroxymethyl)cyclopropyl)methyl)-5-(3-oxomorpholino)-1H-benzo[d]imidazol-2(3H)-ylidene)benzamide]
16 | ≤ 100 nM | ≤ 100 nM | CC(C)N1CCN(c2ccc3c(c2)[nH]/c(=N\C(=O)c2cccc(C(F)F)c2)n3CCCO)C(=O)C1 [Compound 185, (E)-3-(difluoromethyl)-N-(1-(3-hydroxypropyl)-5-(4-isopropyl-2-oxopiperazin-1-yl)-1H-benzo[d]imidazol-2(3H)-ylidene)benzamide]
17 | ≤ 100 nM | 100 to 1000 nM | CC(=O)c1cccc(C(=O)/N=c2\[nH]c3cc(N4CCOCC4=O)ccc3n2CCCO)c1 [Example 231, (E)-3-acetyl-N-(1-(3-hydroxypropyl)-5-(3-oxomorpholino)-1H-benzo[d]imidazol-2(3H)-ylidene)benzamide]
18 | ≤ 100 nM | 100 to 1000 nM | O=C(/N=c1\[nH]c2cc(N3CCOCC3=O)ccc2n1CCCO)c1cccc(C(F)(F)F)c1 [Compound 86, (E)-N-(1-(3-hydroxypropyl)-5-(3-oxomorpholino)-1H-benzo[d]imidazol-2(3H)-ylidene)-3-(trifluoromethyl)benzamide]
19 | ≤ 100 nM | > 1000 nM | O=C(/N=c1\[nH]c2cc(N3CCCOC3=O)ccc2n1CC(F)(F)C(F)(F)F)c1cccc(C(F)(F)F)c1 [Compound 177, (E)-N-(5-(2-oxo-1,3-oxazinan-3-yl)-1-(2,2,3,3,3-pentafluoropropyl)-1H-benzo[d]imidazol-2(3H)-ylidene)-3-(trifluoromethyl)benzamide]
20 | ≤ 100 nM | 100 to 1000 nM | O=C(/N=c1\[nH]c2cc(N3CC4CC(N4)C3=O)ccc2n1CCCO)c1cccc(C(F)F)c1 (stereo not drawn) [Example 213, (E)-3-(difluoromethyl)-N-(1-(3-hydroxypropyl)-5-(2-oxo-3,6-diazabicyclo[3.1.1]heptan-3-yl)-1H-benzo[d]imidazol-2(3H)-ylidene)benzamide]
21 | ≤ 100 nM | ≤ 100 nM | COc1cc2c(cc1N1CCOCC1=O)[nH]/c(=N\C(=O)c1cccc(C(F)(F)F)c1)n2CC1(CO)CC1 [Compound 53, (E)-N-(1-((1-(hydroxymethyl)cyclopropyl)methyl)-6-methoxy-5-(3-oxomorpholino)-1H-benzo[d]imidazol-2(3H)-ylidene)-3-(trifluoromethyl)benzamide]
